Reference: ChEMBL document CHEMBL2331413, “Novel in vivo active anti-malarials based on a hydroxy-ethyl-amine scaffold” (Bioorg Med Chem Lett, 2013)

Experiments:
Type in all cases: functional, organism-based
Plasmodium falciparum [1] = experiment: Antimalarial activity against chloroquine-sensitive Plasmodium falciparum NF54 infected in RBC after 72 hrs by [3H]hypoxanthine incorporation assay in presence of 0.5 % albumax
Plasmodium falciparum [2] = experiment: Antimalarial activity against chloroquine-sensitive Plasmodium falciparum NF54 infected in RBC after 72 hrs by [3H]hypoxanthine incorporation assay in presence of 50 % serum
Plasmodium falciparum [3] = experiment: Antimalarial activity against chloroquine-sensitive Plasmodium falciparum NF54 infected in RBC after 24 hrs by [3H]hypoxanthine incorporation assay in presence of 0.5 % albumax
Plasmodium falciparum [4] = experiment: Antimalarial activity against chloroquine-sensitive Plasmodium falciparum NF54 infected in RBC after 48 hrs by [3H]hypoxanthine incorporation assay in presence of 0.5 % albumax

Row | SMILES | IC50 (Plasmodium falciparum [1]) | IC50 (Plasmodium falciparum [2]) | IC50 (Plasmodium falciparum [3]) | IC50 (Plasmodium falciparum [4])
1 | CCCN(CCC)C(=O)c1cccc(C(=O)N[C@@H](Cc2ccccc2)[C@H](O)CN[C@H](C)C2CCCCC2)c1 | 11 nM | 48 nM |  | 
2 | CC(C)(NC[C@@H](O)[C@H](Cc1ccccc1)NC(=O)Cc1ccccc1)c1ccccc1 | > 500 nM |  |  | 
3 | CC(C)(NC[C@@H](O)[C@H](Cc1ccccc1)NC(=O)c1ccc(Cl)cc1)c1ccccc1 | 349 nM |  |  | 
4 | CC(C)(C)c1ccc(/C=C/C(=O)N[C@@H](Cc2ccccc2)[C@H](O)CNC(C)(C)c2ccccc2)cc1 | 444 nM |  |  | 
5 | CCCN(CCC)Cc1ccc(Nc2ccc(C(=O)N[C@@H](Cc3ccccc3)[C@H](O)CN[C@H](C)c3ccccc3)cc2)cc1O | 22 nM | 20 nM | 77 nM | 
6 | CCCN(CCC)C(=O)c1cccc(C(=O)N[C@@H](Cc2ccccc2)[C@H](O)CNC(C)(C)c2cccc(OC)c2)c1 | < 7.8 nM | 25 nM |  | 
7 | C[C@@H](NC[C@@H](O)[C@H](Cc1ccccc1)NC(=O)c1ccc(N2CCN(Cc3ccccc3)CC2)cc1)c1ccccc1 | 21 nM | 39 nM |  | 
8 | CCN(CC)Cc1cc(CNC[C@@H](O)[C@H](Cc2ccccc2)NC(=O)c2ccc(N3CCN(C)CC3)cc2)ccc1O | 333 nM | 167 nM | 408 nM | 314 nM
9 | CCCN(CCC)C(=O)c1cccc(C(=O)N[C@@H](Cc2ccccc2)[C@H](O)CNC2CCOCC2)c1 | 16 nM | 34 nM |  | 
10 | CCCN(CCC)C(=O)c1cccc(C(=O)N[C@@H](Cc2ccccc2)[C@H](O)CN[C@@H](C)c2ccccc2)c1 | 21 nM |  |  | 
11 | C[C@@H](NC[C@@H](O)[C@H](Cc1ccccc1)NC(=O)c1cccc(C(=O)N2CCN(C)CC2)c1)c1ccccc1 | 98 nM | 102 nM |  | 
12 | CC(C)(NC[C@@H](O)[C@H](Cc1ccccc1)NC(=O)c1cccc2ncccc12)c1ccccc1 | > 500 nM |  |  | 
13 | CCCN(CCC)C(=O)c1cccc(C(=O)N[C@@H](Cc2ccccc2)[C@H](O)CNC(C)(C)c2ccc(OC)cc2)c1 | 13 nM | 44 nM |  | 
14 | CCCN(CCC)C(=O)c1cccc(C(=O)N[C@@H](Cc2ccccc2)[C@H](O)CNCCc2ccccc2)c1 | 186 nM |  |  | 
15 | CCCN(CCC)C(=O)c1cccc(C(=O)N[C@@H](Cc2ccccc2)[C@H](O)CNC(C)(C)C)c1 | 24 nM | 66 nM |  | 
16 | CC(NC[C@@H](O)[C@H](Cc1ccccc1)NC(=O)c1ccc(N2CCN(C)CC2)cc1)c1ccc(O)c(CN2CCCCC2)c1 (stereo not given in full) | 203 nM | 125 nM |  | 
17 | CCCN(CCC)C(=O)c1cccc(C(=O)N[C@@H](Cc2ccccc2)[C@H](O)CNCc2ccccc2)c1 | > 500 nM |  |  | 
18 | C[C@@H](NC[C@@H](O)[C@H](Cc1ccccc1)NC(=O)c1cccc(C(=O)N2CCCC2)c1)c1ccccc1 | 4.9 nM | 9.3 nM |  | 
19 | CCCN(CCC)C(=O)c1ccccc1C(=O)N[C@@H](Cc1ccccc1)[C@H](O)CN[C@H](C)c1ccccc1 | > 500 nM | > 500 nM |  | 
20 | CC(C)(NC[C@@H](O)[C@H](Cc1ccccc1)NC(=O)c1ccc2cc[nH]c2c1)c1ccccc1 | 146 nM |  |  | 
21 | COc1cccc(C(=O)N[C@@H](Cc2ccccc2)[C@H](O)CNC(C)(C)c2ccccc2)c1 | 349 nM |  |  | 
22 | Cc1cc(C(=O)N[C@@H](Cc2ccccc2)[C@H](O)CNC(C)(C)c2ccccc2)nn1C | > 500 nM |  |  | 
23 | CC(C)C[C@H](NC(=O)c1ccc(N2CCN(C)CC2)cc1)[C@H](O)CNC1CCCC1 | > 500 nM | > 500 nM |  | 

Row | SMILES | IC50 (Plasmodium falciparum [1]) | IC50 (Plasmodium falciparum [2]) | IC50 (Plasmodium falciparum [3]) | IC50 (Plasmodium falciparum [4])
24 | CCCN(CCC)C(=O)c1cccc(C(=O)N[C@@H](Cc2ccccc2)[C@H](O)CNC2CCCCC2)c1 | 14 nM | 28 nM |  | 
25 | CCCN(CCC)Cc1cc(C(C)NC[C@@H](O)[C@H](Cc2ccccc2)NC(=O)c2ccc(N3CCN(C)CC3)cc2)ccc1O (stereo not given in full) | 89 nM | 62 nM | 90 nM | 75 nM
26 | CCCN(CCC)C(=O)c1cccc(C(=O)N[C@@H](Cc2ccccc2)[C@@H](O)CNCCCc2ccccc2)c1 | > 500 nM | > 500 nM |  | 
27 | CN1CCCc2cc(C(=O)N[C@@H](Cc3ccccc3)[C@H](O)CNC(C)(C)c3ccccc3)ccc21 | > 500 nM |  |  | 
28 | CCCNC(=O)c1cccc(C(=O)N[C@@H](Cc2ccccc2)[C@H](O)CN[C@H](C)c2ccccc2)c1 | 12 nM | 30 nM |  | 
29 | CC(C)(NC[C@@H](O)[C@H](Cc1ccccc1)NC(=O)Cc1cccc2ccccc12)c1ccccc1 | > 500 nM |  |  | 
30 | CCCN(CCC)C(=O)c1cccc(C(=O)N[C@@H](Cc2ccccc2)[C@H](O)CNC(C)(C)c2ccc3ccccc3c2)c1 | 45 nM | 143 nM |  | 
31 | CCCN(CCC)C(=O)c1cccc(C(=O)N[C@@H](Cc2ccccc2)[C@H](O)CNC(C)(C)c2cccc(F)c2)c1 | 9.6 nM | 50 nM |  | 
32 | CCCN(CCC)C(=O)c1cccc(C(=O)N[C@@H](Cc2ccccc2)[C@H](O)CNC2CCc3ccccc32)c1 (stereo not given in full) | 48 nM |  |  | 
33 | CCCN(CCC)C(=O)c1cccc(C(=O)N[C@@H](Cc2ccccc2)[C@H](O)CN2CCN(C(C)=O)CC2)c1 | > 500 nM |  |  | 
34 | CN1CCN(c2ccc(C(=O)N[C@@H](Cc3ccccc3)[C@H](O)CNCc3ccc(O)c(CN4CCCC4)c3)cc2)CC1 | > 500 nM | 295 nM | > 500 nM | > 500 nM
35 | CCN(CC)Cc1ccc(Nc2ccc(C(=O)N[C@@H](Cc3ccccc3)[C@H](O)CN[C@H](C)c3ccccc3)cc2)cc1O | < 7.8 nM | 9 nM | 65 nM | 15 nM
36 | CN1CCN(c2ccc(C(=O)N[C@@H](Cc3ccccc3)C(F)(F)CNC3CCCC3)cc2)CC1 | > 500 nM | > 500 nM |  | 
37 | CCCN(CCC)C(=O)c1cccc(C(=O)N[C@@H](Cc2ccccc2)[C@H](O)CNC(C)(C)c2cccc(C#N)c2)c1 | < 1.5 nM | 8.6 nM |  | 
38 | Cn1cc(C(=O)N[C@@H](Cc2ccccc2)[C@H](O)CNC(C)(C)c2ccccc2)c2ccccc21 | > 500 nM |  |  | 
39 | CCCN(CCC)C(=O)c1cccc(C(=O)N[C@@H](Cc2ccccc2)[C@H](O)CNC(C)(C)c2ccccc2)c1 | 7.6 nM | 40 nM |  | 
40 | CC1CN(c2ccc(C(=O)N[C@@H](Cc3ccccc3)[C@H](O)CN[C@H](C)c3ccccc3)cc2)CCN1 (stereo not given in full) | 190 nM | 300 nM |  | 
41 | CCCN(CCC)C(=O)c1cccc(C(=O)N[C@@H](Cc2ccccc2)[C@H](O)CNC2(c3ccccc3)CCCC2)c1 | 12 nM | 168 nM |  | 
42 | CCCN(CCC)C(=O)c1cccc(C(=O)N[C@@H](Cc2ccccc2)[C@H](O)CNC(C)(C)c2ccc(C#N)cc2)c1 | 55 nM | 188 nM |  | 
43 | CCCN(CCC)C(=O)c1cccc(C(=O)N[C@@H](Cc2ccccc2)[C@H](O)CNC(C)(C)c2ccccc2F)c1 | 21 nM | 142 nM |  | 
44 | CCCN(CCC)C(=O)c1cccc(C(=O)N[C@@H](Cc2ccccc2)[C@H](O)CNC2CCN(C)CC2)c1 | > 500 nM | > 500 nM |  | 
45 | CC(=O)N[C@@H](Cc1ccccc1)[C@H](O)CNC(C)(C)c1ccccc1 | > 500 nM |  |  | 
46 | CCCN(CCC)C(=O)c1cccc(C(=O)N[C@@H](Cc2ccccc2)[C@H](O)CN[C@@H](C)C2CCCCC2)c1 | 324 nM | 466 nM |  | 

Row | SMILES | IC50 (Plasmodium falciparum [1]) | IC50 (Plasmodium falciparum [2]) | IC50 (Plasmodium falciparum [3]) | IC50 (Plasmodium falciparum [4])
47 | CCCN(CCC)C(=O)c1cccc(C(=O)N[C@H](CCNC(C)C)Cc2ccccc2)c1 | > 500 nM | > 500 nM |  | 
48 | COCCCC(=O)N[C@@H](Cc1ccccc1)[C@H](O)CNC(C)(C)c1ccccc1 | > 500 nM |  |  | 
49 | C[C@@H](NC[C@@H](O)[C@H](Cc1ccccc1)NC(=O)c1ccc(O)c(CN2CCCC2)c1)c1ccccc1 | 261 nM | 386 nM |  | 
50 | CC(=O)N1CCN(c2ccc(C(=O)N[C@@H](Cc3ccccc3)[C@H](O)CNC(C)(C)c3ccccc3)cc2)CC1 | 162 nM |  |  | 
51 | CC(C)(NC[C@@H](O)[C@H](Cc1ccccc1)NC(=O)c1ccncc1)c1ccccc1 | > 500 nM |  |  | 
52 | CCCN(CCC)C(=O)c1cccc(C(=O)N[C@@H](Cc2ccccc2)[C@H](O)CNC2Cc3ccccc3C2)c1 | 11 nM |  |  | 
53 | CCN(CC)Cc1cc(C(=O)N[C@@H](Cc2ccccc2)[C@H](O)CN[C@H](C)c2ccccc2)ccc1O | 357 nM | > 500 nM | 380 nM | 305 nM
54 | Cn1cnc(C(=O)N[C@@H](Cc2ccccc2)[C@H](O)CNC(C)(C)c2ccccc2)c1 | > 500 nM |  |  | 
55 | CC(C)(NC[C@@H](O)[C@H](Cc1ccccc1)NC(=O)c1cccc(C(F)(F)F)c1)c1ccccc1 | 300 nM |  |  | 
56 | CCCN(CCC)C(=O)c1cccc(C(=O)N[C@@H](Cc2ccccc2)[C@H](O)CNC(C)(C)c2ccc(F)cc2)c1 | 24 nM | 110 nM |  | 
57 | C[C@@H](NC[C@@H](O)[C@H](Cc1ccccc1)NC(=O)c1cccc(C(=O)N2CCCCCC2)c1)c1ccccc1 | 3.8 nM | 13 nM |  | 
58 | CC(C)(NC[C@@H](O)[C@H](Cc1ccccc1)NC(=O)C1CCCC1)c1ccccc1 | > 500 nM |  |  | 
59 | CCN(CC)Cc1cc(Nc2ccc(C(=O)N[C@@H](Cc3ccccc3)[C@H](O)CN[C@H](C)c3ccccc3)cc2)ccc1O | 8.3 nM | 3.6 nM | 133 nM | < 7.8 nM
60 | CCCN(CCC)C(=O)c1cccc(C(=O)N[C@@H](Cc2ccccc2)[C@H](O)CNC2(c3ccccc3)CC2)c1 | 116 nM | 435 nM |  | 
61 | CCCN(CCC)C(=O)c1cccc(C(=O)N[C@@H](Cc2ccccc2)[C@H](O)CNCCCc2ccccc2)c1 | 43 nM | 126 nM |  | 
62 | CN(C)c1cccc(C(=O)N[C@@H](Cc2ccccc2)[C@H](O)CNC(C)(C)c2ccccc2)c1 | 102 nM |  |  | 
63 | CCCN(CCC)C(=O)c1cccc(C(=O)N[C@@H](Cc2ccccc2)[C@H](O)CNC(C)C)c1 | 78 nM | 150 nM |  | 
64 | CC(=O)Nc1cccc(C(=O)N[C@@H](Cc2ccccc2)[C@H](O)CNC(C)(C)c2ccccc2)c1 | 44 nM |  |  | 
65 | CCCN(CCC)C(=O)c1cccc(C(=O)N[C@@H](Cc2ccccc2)[C@H](O)CN2CCN(Cc3ccccc3)CC2)c1 | > 500 nM |  |  | 
66 | CC(C)(NC[C@@H](O)[C@H](Cc1ccccc1)NC(=O)c1cccc(-c2ccccc2)c1)c1ccccc1 | 37 nM |  |  | 
67 | CN1CCN(c2ccc(C(=O)N[C@@H](Cc3ccccc3)[C@H](O)CNC3CCCC3)cc2)CC1 | 81 nM | 75 nM |  | 
